From paper PMC6544338, “Comparative biophysical characterization: A screening tool for acetylcholinesterase inhibitors” (PLoS ONE, 2019)
Where two headings read alike, the source gives them in different places.

Columns and labels:
AChE [1] = settings: cited from earlier work; for IC50: read-out: IC50
AChE [2] = target: T1, AChE (Electrophorus electricus, UniProt O42275); assay: Far-UV circular dichroism of AChE with small molecules (secondary structure composition); settings: single molecule; for Turns of AChE in presence of the molecule: AChE alone 0; for α helix of AChE in presence of the molecule: AChE alone 3.6±0.012; for Random of AChE in presence of the molecule: AChE alone 44.2±0.46; for β sheets of AChE in presence of the molecule: AChE alone 52.3±0.6
T1 construct: purchased Sigma (St. Louis, MO, USA)
Method: Protein solutions 0.5 milligram per milliliter (mgml^-1) was prepared in 10 mM PBS at pH 7.7. Scans were performed at room temperature using 0.1 cm path length quartz cuvette with 8 s differential integration time at a scan rate of 100 nano meter per minute (nm min^-1). The CD spectrum of AChE enzyme individually and with different small molecules, also in combination was recorded. All spectra resulted from averaging three scans were corrected from the buffer blank. Results were expressed as molar ellipticity (°cm^2 dmol^-1) based on a mean amino acid residue weight (MRW) 110 Da for AChE. The molar ellipticity was determined as [θ obs] = {100 × (MRW) × θobs/cl}, where θ is the observed ellipticity in degrees at a given wavelength, c is the protein concentration in mgml^-1, and l is the path length in cm.
The relative percentages of the secondary structure elements were estimated in triplicates using Manager Suite software.

immobilized AChE [3] = target: T2, immobilized AChE (Electrophorus electricus, UniProt O42275); assay: biochemical; type: binding; settings: for Kd / Ka1 / Kd1: 25°C
T2 construct: purchased Sigma (St. Louis, MO, USA)
Method: (§1) The protocol was followed with some modifications for enzyme immobilization, scouting and screening. SPR interactions were performed using a Biacore X100 optical biosensor (GE Healthcare Life Sciences, Bangalore, India) at 25°C. SPR analysis was carried out in PBS (200 mM, pH 7.7) from the analyte stock solutions, working solutions were diluted before passing on to the sensor surface. Data collection was done with the help of Biacore control software ver 2.0.2 Sets of experiments were carried out by monitoring change in the refractive index as a function of time under constant flow conditions. The relative amount of inhibitor bound to the AChE was determined by measuring the net increase in the refractive index over time compared to buffer as a control. During each run, there is an inline subtraction of the reference surface. Change is reported regarding response units (RU). The surface was washed with 5 cycles of running buffer (PBS) before next analytes.
(§2) As per pH scouting studies, AChE enzyme (100μg) was dissolved in 100 mM sodium acetate buffer pH 4.5 and was immobilized to the CM5 sensor chip by using the amine coupling method. The flow rate was kept constant during immobilization at 10 μlmin^-1, the surface of flow cell was activated by 1:1 mixture of 100 mM EDC and 100 mM NHS (both dissolved in water) for 7 min. AChE was injected for 7 min, and residual activated carboxymethyl groups were blocked on the sensor surface by 7 min injection of 1M ethanolamine, pH 8.5. In this particular study, flow cell 1 was blank immobilized (without protein) and used as a reference. Inline and double referencing was done for the buffer RU compensation.
(§3) Here the model describes this competitive situation and returns two sets of rate constants, one for each reaction taking into consideration two different analytes. The same buffer was used as running buffer. The constant flow rate was maintained throughout the kinetics (45 μlmin^-1), contact time and dissociation time was kept at 120 second (s). 10 mM glycine pH 3.0 for the time period of 30 s was used for regeneration. The experiments were carried at different concentrations of inhibitors.
(§4) The analysis of data was carried out with X100 evaluation software ver 2.0.2 and fitted to two state fit for individual molecules and for competitive experiments a heterogeneous analyte binding model.

AChE [4] = target: T1, AChE; assay: Fluorescence spectral studies of AChE incubated with molecules; settings: excitation 365 nm, control emission maxima […] nm, molecules at IC50 concentration, 10 min
Method: The fluorescence intensities were recorded using 0.5 mgml^-1 protein concentration with an excitation wavelength of 365 nm and an emission wavelength of 400–700 nm with slit widths of 20 nm using MY14410002 fluorescence spectrophotometer (Agilent Technologies, USA) at 25°C. Protein solutions of 0.5 mgml^-1 were prepared in 10 mM PBS at pH 7.7. Scans were performed at room temperature using a 1 cm path length quartz cuvette with 1 s differential integration time at a scan rate of 600 nm min^-1. […] The subsequent changes in fluorescence were measured at this wavelength.
Fig 21 a) Intrinsic fluorescence spectra of the AChE incubated with molecules. […] Scans were performed at 37°C using a 1 cm path length quartz cuvette with 1 s differential integration time at a scan rate of 600 nm min^-1. The excitation wavelength was 365 nm and emission wavelength was in the range of 400–700 nm. b) Intrinsic fluorescence spectra of the AChE incubated with molecules. […] Scans were performed at 37° C using a 1 cm path length quartz cuvette with 1 s differential integration time at a scan rate of 600 nm min^-1. The excitation wavelength was 365 nm and the emission wavelength was in the range of 400–700 nm.

[5] = target: T3, acetylcholinesterase from Electrophorus electricus (Electric eel) (Electrophorus electricus, UniProt O42275); assay: Inhibition assay for acetylcholinesterase activity (modified Ellman, ATCI/DTNB, 412 nm); type: biochemical
T3 construct: purchased Sigma (St. Louis, MO, USA)
Method: The assay was performed with some modifications of Ellman et al (1961). […] The hydrolysis was monitored by the formation of yellow color (5-thio-2-nitrobenzoate anion) and the absorbance was measured at 412 nm by using spectrophotometer (UV-1800, Shimadzu, Japan).
The inhibitory activity assay was carried out with slight modifications. […] The inhibitory percentage of AChE was calculated as follows:
%inhibition = 100[A − B] − [C − D]/[A − B]
A is the OD without test substance, B is the OD without test substance and AChE, C is the OD with the test substance, D is the OD at 412 nm with the test substance and without AChE.
The relative percentage inhibition were estimated in triplicates and values were expressed as mean ± SEM (n = 3).

[6] = test system: AChE activity of the central nervous tissue of L.acuminata; settings: 0.04 mM tannic acid; cited from earlier work
immobilized AChE [7] = target: T2, immobilized AChE; assay: biochemical; type: binding; settings: for Kd: read-out: Molecule 1 KD
Method: as §1, §2, §3, §4
Likewise, competitive experiments between different pairs was run by mixing 1:1 ratio of molecules and was fit to heterogeneous analyte model were studied. These experiments are helpful for determining the kinetics of a small molecule analyte in competition with other. Response contributions from both analytes are taken into account by considering molecular weight and concentrations of analytes. For competition binding experiments, pairing was done based on substrate-inhibitor and inhibitor-inhibitor interactions. […] Finally, naturally occurring crocin was also tested due to reports in the literature as a brain tonic for the Alzheimer's.

[8] = affinity fit, read-out: KD Affinity
[9] = pair tannic acid (molecule 1) and ATCI (molecule 2), 1:1

T2 sequence (O42275 24-633): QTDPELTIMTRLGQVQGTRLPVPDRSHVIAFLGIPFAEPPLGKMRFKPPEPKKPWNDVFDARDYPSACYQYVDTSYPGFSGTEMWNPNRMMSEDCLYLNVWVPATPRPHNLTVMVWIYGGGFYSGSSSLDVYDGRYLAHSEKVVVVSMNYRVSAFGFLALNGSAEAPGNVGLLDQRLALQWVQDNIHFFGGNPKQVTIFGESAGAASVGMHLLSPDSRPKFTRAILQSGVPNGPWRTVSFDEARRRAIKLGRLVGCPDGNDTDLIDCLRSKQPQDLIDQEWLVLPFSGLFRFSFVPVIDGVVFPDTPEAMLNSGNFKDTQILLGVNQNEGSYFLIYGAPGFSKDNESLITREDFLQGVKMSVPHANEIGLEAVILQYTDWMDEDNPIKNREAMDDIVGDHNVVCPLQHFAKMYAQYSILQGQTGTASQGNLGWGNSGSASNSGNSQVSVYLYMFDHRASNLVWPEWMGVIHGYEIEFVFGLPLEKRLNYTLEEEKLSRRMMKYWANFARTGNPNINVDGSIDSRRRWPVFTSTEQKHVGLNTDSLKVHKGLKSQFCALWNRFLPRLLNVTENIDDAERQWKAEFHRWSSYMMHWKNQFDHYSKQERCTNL
T1 sequence (O42275 24-633): as above
T3 sequence (O42275 24-633): as above

Molecule | Turns of AChE in presence of the molecule (AChE [2]) | α helix of AChE in presence of the molecule (AChE [2]) | Random of AChE in presence of the molecule (AChE [2]) | β sheets of AChE in presence of the molecule (AChE [2]) | Ka2 (immobilized AChE [3]) | Kd (immobilized AChE [3]; [8]) | Ka1 (immobilized AChE [3]; two-state model) | Kd1 (immobilized AChE [3]; two-state model) | change in fluorescence emission of AChE compared to control enzyme (AChE [4]) | also measured
Oc1cccc(O)c1O [Pyrogallol, pyrogallol] | 0% | 0% | 49.2±0.68% | 50.8±0.73% | 0.01979±3.7×10^−4 1/s | 119 µM | 200.1 ± 3.3 M⁻¹ s⁻¹ | 0.05082 ± 0.0015 s⁻¹ | quenching | IC50 (AChE [1]): 10.2 µM; Kd2 (immobilized AChE [3]): 0.002793±3.2×10^−5 1/s; Kd (immobilized AChE [3]; two-state model, read-out: KD Kinetics): 31.4 µM; IC50 [5]: 3.8 ± 0.1 mM
O=C(O[C@@H]1Cc2c(O)cc(O)cc2O[C@@H]1c1cc(O)c(O)c(O)c1)c1cc(O)c(O)c(O)c1 [epigallocatechin gallate] |  |  |  |  |  |  |  |  |  | IC50 (AChE [1]; literature value, no reference printed behind it): 16.8 µM
CC1=C(C=O)C(C)(C)CC=C1 [safranal] |  |  |  |  |  |  |  |  |  | concentration showing maximum inhibition of AChE (AChE [1]): 21.09 ± 0.17 µM
tannic acid | 14.8±0.08% | 5.1±0.039% | 49.5±0.70% | 30.6±0.19% | 0.1039±2.2×10^−4 1/s | 11.4 µM | 1400 ± 47 M⁻¹ s⁻¹ | 0.03423 ± 0.017 s⁻¹ | redshift | reduced AChE activity [6]: 37%; Molecule 1 ka1 (immobilized AChE [7]): 231.1 ± 3.3 M⁻¹ s⁻¹; Molecule 1 kd1 (immobilized AChE [7]): 2.685e-05 ± 2.9e-08 s⁻¹; Molecule 1 ka1 (immobilized AChE [7]; [9]): 1.687e-05 ± 3.7e+06 M⁻¹ s⁻¹; Molecule 1 kd1 (immobilized AChE [7]; [9]): 0.01266 ± 0.028 s⁻¹; Kd (immobilized AChE [7]; [9]): 75.1 nM; Kd (immobilized AChE [7]): 116 nM; IC50 ([5]; […] ATCI, PBS 200 mM pH 7.7, 37°C, mean ± SEM (n = 3), read-out: IC50): 0.027 ± 0.002 mM
